Here are results for 53 molecules from ChEMBL document CHEMBL1201862, “PubChem BioAssay data set” (2004).

Experiment in all cases: DTP human tumour cell line panel, 48 h
The subject of assay [1] is BT-549.
Assay [2] relates to Hs-578T.
Assay [3] has as its system MDA-N.
Assay [4] has as its system KM-20L2.
In assay [5] the test system is M19-MEL.
The test system of assay [6] is DMS-114.
Assay [7] relates to LXFL 529.
The test system of assay [8] is DLD-1.

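Protocol summary: plate cells (96-well), add compound at 5 concentrations, incubate 48 h, interpolate endpoints linearly. GI50: concentration for 50% inhibition of growth.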 Calls of active or inactive are those of the source. Cut-off read from the data, not from the text of the source: active = GI50 up to about 1.1 µM and inactive = higher.

What is called GI50 is the concentration that inhibits growth by half.

With `Cc1ccnc2nc(-c3cccc(Cl)c3)cc(O)c12`, the GI50 in assay [1] was 1.65 µM (inactive); in assay [2] it was 0.44 µM (active); in assay [3] it was 0.0108 µM (active).
The matching figures for `CCCCCCOc1ccc(NC2=C(Cl)C(=O)c3cccnc3C2=O)cc1`: 3.22 µM (inactive), 8.02 µM (inactive) and 1.59 µM (inactive).
The matching figures for `c1ccc(CCN2CCOCC2)nc1`: > 100 µM (inactive), > 100 µM (inactive) and > 100 µM (inactive).
The matching figures for `Cn1c(=O)cc(NCCc2ccccc2)[nH]c1=O`: 47.8 µM (inactive), 14.1 µM (inactive) and 3.7 µM (inactive).
Regarding `N#CC1=C(N)N(c2ccccc2)C(c2ccco2)C1(C#N)C#N` (configuration not stated), the GI50 is 18.8 µM (inactive) in assay [1], 36.6 µM (inactive) in assay [2] and 27.8 µM (inactive) in assay [3].
Consider `CCCC1c2c(ccc3ccccc23)Oc2ccc3ccccc3c21`, for which the GI50 in assay [1] is > 100 µM (inactive); in assay [2], > 100 µM (inactive); in assay [3], 39.6 µM (inactive).
As to `Cc1nc(N)nc(S)c1CCCNc1ccccc1`, the GI50 in assay [1] is 70 µM (inactive); in assay [2], > 100 µM (inactive); in assay [3], 52 µM (inactive).
Turning to `OC(COc1ccccc1)CN1CCCCC1` (configuration not stated), the GI50 in assay [1], in assay [2] and in assay [3] was > 100 µM (inactive) throughout.
For `COc1cc2c3c4[n+](cc2c(OC)c1OC)CCC4CCC3` (configuration not stated), the GI50 in assay [1], in assay [2] and in assay [3] was > 100 µM (inactive) throughout.
As to `OCc1c2c(cc3c1CC1(C3)Cc3cc4c(c(CO)c3C1)CCC4)CCC2`, the GI50 in assay [2] is 17.5 µM (inactive); in assay [3], 15.1 µM (inactive).
Regarding `CCCCc1c2c(nc3c1CCC/C3=C\c1ccccc1)C(=O)CCC2`, the GI50 in assay [4] is 22.6 µM (inactive); in assay [5], 18.2 µM (inactive); in assay [6] it was 20.7 µM (inactive); in assay [7], 35.6 µM (inactive).
Consider `COc1c(C)c(C/C=C(\C)CCCC(C)CCCC(C)CCCC(C)C)c(OC)c2ccccc12` (configuration not stated), for which the GI50 in assay [1], in assay [2] and in assay [3] was > 100 µM (inactive) in each case.
`Cc1c2c(c(C)n1-c1ccccc1)C(=O)N(CCN1CCN(c3cccc(C(F)(F)F)c3)CC1)C2=O`: the GI50 in assay [1] is > 100 µM (inactive); in assay [2], > 100 µM (inactive); in assay [3], 71.1 µM (inactive).
Turning to `Nc1ccc2c(SCCSc3c4ccccc4nc4cc(N)ccc34)c3ccccc3nc2c1`, the GI50 in assay [1] and in assay [2] was > 100 µM (inactive) throughout.
Take `COC(=O)c1cc(=O)nc2sc3cccc(C)c3n12`: the GI50 in assay [1] is 55.6 µM (inactive); in assay [2], 56.2 µM (inactive); in assay [3] it was 44 µM (inactive).
Consider `O=C(NCC(O)COc1ccccc1)c1ccccc1O` (configuration not stated), for which the GI50 in assay [1] was 27.7 µM (inactive); in assay [3], > 100 µM (inactive).
`c1cncc(CSc2nc3ccccc3nc2-c2cccs2)c1`: the GI50 in assay [5] and in assay [8] was > 100 µM (inactive) in each case.
For the molecule `Cc1cc(O)nc(NN2C(Cl)C(=O)C2c2ccc(O)cc2)n1` (configuration not stated), the GI50 in assay [4] is 18.7 µM (inactive); in assay [5] it was 10.5 µM (inactive); in assay [6], 7.35 µM (inactive); in assay [1] it was 9.1 µM (inactive); in assay [7] it was 10.3 µM (inactive); in assay [2], 14.5 µM (inactive).
As for `COc1cc(-c2cc(=O)c3ccccc3o2)ccc1N`, the GI50 was 49.5 µM (inactive) in assay [4], > 100 µM (inactive) in assay [5], 63.5 µM (inactive) in assay [6] and > 100 µM (inactive) in assay [7].
With `O=[N+]([O-])C1CC/C(=N/O)c2nonc21` (configuration not stated), the GI50 in assay [1], in assay [2] and in assay [3] was > 10 µM (inactive) in each case.
As for `c1ccc(/C(=N/Nc2cnccn2)c2ncccn2)cc1`, the GI50 in assay [1] is > 100 µM (inactive); in assay [2] it was 23.1 µM (inactive); in assay [3], > 100 µM (inactive).
Consider `COc1ccc(-c2nnc(-c3ccncc3)o2)cc1`, for which the GI50 in assay [1], in assay [2] and in assay [3] was > 100 µM (inactive) throughout.
`C=C1C(=O)OC2CC(C)C(/C=C/C(C)=O)=CCC12` (configuration not stated): the GI50 in assay [1], in assay [2] and in assay [3] was > 100 µM (inactive) in each case.
With `CCOC(=O)C1CCC(=O)N1C(=O)c1ccc(Cl)cc1` (configuration not stated), the GI50 in assay [1], in assay [2] and in assay [3] was > 100 µM (inactive) each time.
Regarding `N#Cc1cc(Sc2ccc(N)c(C#N)c2)ccc1N`, the GI50 was 19 µM (inactive) in assay [1], 12.6 µM (inactive) in assay [2] and 4.03 µM (inactive) in assay [3].
The matching figures for `CCCCn1c2c(n(CCCC)c1=S)-c1c(n(CCCC)c(=S)n1CCCC)SSc1c(n(CCCC)c(=S)n1CCCC)-c1c(n(CCCC)c(=S)n1CCCC)SSc1c(n(CCCC)c(=S)n1CCCC)-c1c(n(CCCC)c(=S)n1CCCC)SS2`: 3.55 µM (inactive), 3.25 µM (inactive) and 7.41 µM (inactive).
As to `Cc1ccc2nc(/C=N/c3ccc(Cl)cc3)cc(C)c2c1`, the results for the GI50 in assay [1], in assay [2] and in assay [3] were 13.9 µM (inactive), 15.8 µM (inactive) and 1.3 µM (inactive), respectively.
`CO/N=C(/C(=O)Nc1c[n+](CC(=O)[O-])cs1)c1csc(N)n1`: the GI50 in assay [4], in assay [7] and in assay [8] was > 100 µM (inactive) each time.
`N#CC(Cl)CS(=O)(=O)c1ccccc1` (configuration not stated): the GI50 in assay [4] was 18.7 µM (inactive); in assay [5], 15.8 µM (inactive); in assay [6], 4.11 µM (inactive); in assay [1] it was 16.7 µM (inactive); in assay [2], 11.8 µM (inactive); in assay [3], 8.09 µM (inactive). In addition, in assay [8], the GI50 is 1.93 µM (inactive).
For `C=C(C)[C@@H](C(=O)OC)N1C(=O)c2ccccc2C1=O`, the GI50 in assay [1], in assay [2] and in assay [3] was > 100 µM (inactive) each time.
On to `COc1cc2c(c(OC3OC(CO)C(O)C(O)C3O)c1)C(=O)CC(c1ccc(O)cc1)O2` (configuration not stated), for which the GI50 in assay [1], in assay [2] and in assay [3] was > 100 µM (inactive) each time.
In the case of `CC(=O)NNC1=NN(C(C)=O)C2(S1)C(=O)Nc1ccccc12` (configuration not stated), the GI50 in assay [3] is > 100 µM (inactive).
On to `CCC1C(c2cc(OC)c(OC)c(OC)c2)c2cc3c(cc2OC1N1CCOCC1)OCO3` (configuration not stated), for which the GI50 in assay [1] was 2.99 µM (inactive); in assay [2], 3.02 µM (inactive); in assay [3] it was 0.977 µM (active).
As to `OCCNCO`, the GI50 in assay [4], in assay [5] and in assay [7] was > 100 µM (inactive) throughout.
As to `OC(CCN1CCN(CCOC(c2ccc(F)cc2)c2ccc(F)cc2)CC1)c1ccccc1` (configuration not stated), the figures for the GI50 in assay [1], in assay [2] and in assay [3] were 14.1 µM (inactive), 16 µM (inactive) and 15.1 µM (inactive), respectively.
Regarding `Cc1ccc(NC(=S)C#N)cc1Cl`, the GI50 in assay [1] was 53 µM (inactive); in assay [3], 41.7 µM (inactive).
Consider `COC(=O)c1c(O)ccc2c1c1c(n2Cc2ccc(OC)cc2)C(=O)c2ccccc2C1`, for which the GI50 is > 100 µM (inactive) in assay [1], > 100 µM (inactive) in assay [2] and 53.1 µM (inactive) in assay [3].
Regarding `N#Cc1ccc2oc3ccc(C#N)cc3c(=O)c2c1`, the GI50 in assay [1] was 25.5 µM (inactive); in assay [3], 16.4 µM (inactive).
Turning to `COc1cc(CSc2ccc(O)cc2)cc(OC)c1OC`, the GI50 was 16.4 µM (inactive) in assay [1], 41.3 µM (inactive) in assay [2] and 30.5 µM (inactive) in assay [3].
On to `NNc1nnc(CCCCCCCCc2nnc(NN)n2N)n1N`, for which the results for the GI50 in assay [1] and in assay [3] were 26.1 µM (inactive) and > 100 µM (inactive), respectively.
As for `CC(C)(/N=N/C(C)(C)C(=N)N)C(=N)N`, the GI50 in assay [1], in assay [2] and in assay [3] was > 100 µM (inactive) in each case.
With `CCOC(=O)/C=C(/C(=O)OCC)n1cc(C)c(=O)[nH]c1=O`, the GI50 is 10.3 µM (inactive) in assay [1], 17.7 µM (inactive) in assay [2] and 5.83 µM (inactive) in assay [3].
Turning to `CCOC(=O)C1=C(Nc2cccc(OC)c2)OCC1=O`, the GI50 in assay [2] is > 100 µM (inactive).
Consider `CC(NCc1c(O)ccc2c(-c3ccccc3)cc(=O)oc12)C(=O)O` (configuration not stated), for which the GI50 in assay [2] and in assay [3] was > 100 µM (inactive) in each case.
Consider `Cc1ccc(NC(=O)c2ccc(OP(=O)(O)Nc3ccc(C)cc3)cc2)cc1`, for which the GI50 in assay [1] is > 100 µM (inactive); in assay [2] it was 92.7 µM (inactive); in assay [3], > 100 µM (inactive).
Take `CO[C@H]1O[C@@H]2OC3(C)CCC4[C@H](C)CCC([C@H]1C)[C@]42OO3` (some centres not stated): the GI50 in assay [2] and in assay [3] was > 100 µM (inactive) in each case.
For `CC1CCC2(NC1)OC1CC3[C@@H]4CC=C5C=CCC[C@]5(C)C4CC[C@]3(C)C1C2C` (some centres not stated), the GI50 is 17.9 µM (inactive) in assay [4], 33.9 µM (inactive) in assay [5], 20.8 µM (inactive) in assay [6] and 23.3 µM (inactive) in assay [8].
For `CNc1ncnc2c1nc(NC1CCCC1)n2C1OC(CO)C(O)C1O` (configuration not stated), in assay [3], the GI50 was > 100 µM (inactive).
As for `CC(O)c1cc2c(s1)C(=O)c1scc(C(C)O)c1C2=O` (configuration not stated), the figures for the GI50 in assay [1], in assay [2] and in assay [3] were 0.211 µM (active), 0.394 µM (active) and 0.186 µM (active), respectively.
The matching figures for `Cc1cc(C)c2c(O)cc(-c3ccc4ccccc4c3)nc2n1`: 40.5 µM (inactive), 16.4 µM (inactive) and 3.34 µM (inactive).
Regarding `O=C(Nc1ccn(C2CCC(COC(c3ccccc3)(c3ccccc3)c3ccccc3)O2)c(=O)n1)c1ccccc1` (configuration not stated), the GI50 in assay [2] is 3.54 µM (inactive); in assay [3] it was 3.57 µM (inactive).
Consider `COc1ccc2[nH]c(Cl)c(/C=C3/C(=O)N(c4ccccc4)c4ccccc43)c2c1`, for which the GI50 is 2.67 µM (inactive) in assay [1], 4.74 µM (inactive) in assay [2] and 1.6 µM (inactive) in assay [3].
Consider `C=C1CC[C@H]2C(C)=CC[C@H]3C(=C)C(=O)O[C@@H]3[C@@H]12` [EREMANTHIN], for which the GI50 in assay [1] and in assay [3] was > 100 µM (inactive) in each case.
